Measurements from US20230201382A1, “RADIOLIGANDS FOR MYELIN” (CASE WESTERN RESERVE UNIVERSITY, priority 2016, published 2023).
Values belong to the molecule of their own block, whether it stands above or below them.

Tests used:
myelin [1] = experiment: In situ staining after tail vein injection (Example 2); format: in vivo, mouse; conditions: 1.0 mg (50 mg/kg) tail vein, WT mice, 1 h
Protocol: Wild-type mice were administered the newly synthesized compounds (40 mg/kg) via tail vein injection, and 30-60 min later the mice were perfused transcardially with saline followed by 4% PFA in PBS. Brains and spinal cords were then removed, postfixed by immersion in 4% PFA overnight, dehydrated in 30% sucrose solution, cryostat sectioned at 100 μm, mounted on superfrost slides, and images were acquired directly using a Leica fluorescent microscope.
Following the in vitro studies, we then investigated the ability of compound 21 to readily enter the brain and bind to myelin in situ. A dose of 1.0 mg of compound 21 (50 mg/kg) was administered via the tail vein to wild-type (WT) mice. One hour after injection, the mice were perfused with saline followed by 4% paraformaldehyde (PFA) and the brain and spinal cord were removed and sectioned. The distribution of compound 21 was then directly examined under a fluorescent microscope.

myelin [2] = experiment: In vitro detection of focal demyelination, LPC rat model; format: binding; conditions: LPC-induced focal demyelination, rat brain sections
Protocol: Sprague-Dawley female rats (220-250 g, 8 weeks old) were anesthetized and positioned in a stereotaxic frame (Stoelting). A small incision was made in the scalp, and the corpus callosum was targeted using the following stereotaxic coordinates, relative to bregma: anterior-posterior, 0.0 mm; medial-lateral, 2.0 mm; and dorsal-ventral, 3.4 mm. A small hole was drilled in the skull, and a 26S-gauge needle attached to a 10 μL Hamilton Syringe was lowered into the corpus callosum according to the dorsal-ventral coordinate. A microinjector pump (Stoelting) controlled the infusion of 6 μL of lysolecithin (LPC, 0.1% in saline) at a rate of 0.25 μL/min, after which the needle was left in place for 2 min in order to prevent liquid reflux out of the brain parenchyma. The incision was then closed using 5-0 Ethicon sutures, and the animals were allowed to recover on a heating pad. After 5-7 days, the animals were ready for study.
Five days after surgery, the rats were anesthetized and perfused with saline followed by 4% PFA. […] Sections were then examined under a microscope (Leica DM4000B, Leica Microsystem Inc., Buffalo Grove, Ill., USA) equipped for fluorescence (DFC7000T), and images of the stained mouse whole brain sections were acquired with the same exposure time. […]

myelin [3] = experiment: In vitro tissue staining and fluorescent intensity ratio, mouse brain sections (Example 1); format: binding; conditions: 1 mM staining solution, 25 min
Protocol: Wild-type mice (20-22 g, 8 weeks old) were deeply anesthetized and perfused transcardially with precooled saline (4° C., 10 mL/min for 1 min followed by 7 mL/min for 6 min) followed by fixation with precooled 4% PFA in PBS (4° C., 10 mL/min for 1 min followed by 7 mL/min for 6 min). Brain tissues were then removed, postfixed by immersion in 4% PFA overnight, dehydrated in 10%, 20%, and 30% sucrose solution, embedded in a freezing compound (OCT, Fisher Scientific, Suwanee, Ga.), and sectioned at […] with a cryostat (Thermo HM525, Thermo Fisher Scientific Inc., Chicago, Ill., USA). […] Sections were then examined under a microscope (Leica DM4000B, Leica Microsystem Inc., Buffalo Grove, Ill., USA) equipped for fluorescence (DFC7000T), and images of the stained mouse whole brain sections were acquired with the same exposure time. ImageJ software was then used to quantify pixel intensity values on 6 sections of each tested compound. […] Images were analyzed by two experienced individuals. The FIR of white matter to gray matter were then calculated.
In vitro Staining and Assay of the Fluorescent Intensity. […] Next, we selected a representative region in the genus of the corpus callosum (gcc) and a representative region in the subcortical gray matter (cortex) and calculated the fluorescent intensity ratio (FIR) between both regions (FIG. 2A). […]

myelin [4] = experiment: Quantitative microPET/CT imaging in Shiverer and WT mice; format: in vivo, mouse; conditions: SUVs from 40 to 60 min
Protocol: (§1) For better anatomic localization, CT coregistration was applied.
To further evaluate the in vivo binding specificity of [^18F]21, we investigated the pharmacokinetic profiles of [^18F] 21 in a Shiverer mouse model that is deficient in myelin in the brain. Thus, the pharmacokinetic profiles of [^18F]21 were quantitatively compared between Shiverer mice (C3Fe.SWV-Mbpshi/J, n=2) and age-matched WT mice (CB57J, n=2).
Dynamic emission scans were acquired for 60 min in 3D list mode immediately after [^18F]21 (0.3 mCi each mouse, 11.1 MBq) was administered. The brain uptake of [^18F]21 was lower in the Shiverer brain than in the WT littermates (1.25 vs 1.64). After the brain concentration of [^18F]21 reached a plateau, the SUVs from 40 to 60 min were summarized and compared.

myelin [5] = experiment: Quantitative microPET/CT imaging of spinal cord, rat SCI model; format: in vivo
Protocol: Sprague-Dawley female rats (220-250 g, 8 weeks old) were anesthetized and a restricted laminectomy was conducted to expose the dorsal surface of T13. The vertebral column between T12 and L1 was then stabilized with clamps and forceps fixed to the base of an Infinite Horizon impact device. The midpoint of T13 was impacted with a force of 250 kDyn using a 2.5 mm stainless steel impactor tip, which was used to induce a moderately severe contusive injury to the spinal cord. The musculature was then sutured over the laminectomy site and the skin closed with wound clips followed by subsequent treatment with Marcaine at the incision site. The force/displacement graph was used to monitor impact consistency. After surgery, the animals were carefully monitored daily for pain and body weight with manual bladder expression 2-3 times daily to stimulate reflex voiding until the animals could urinate independently.
as §1
So far, imaging of the spinal cord remains a great challenge. […] Next, we asked whether [18F]21 PET is capable of in vivo imaging of myelin deficiency or myelin damage in living animal models. We conducted [^18F]21-PET imaging in a rat model of thoracic contusive SCI. In this model, the contusion was made at T13 to introduce demyelination. In vivo [^18F]21 PET imaging was performed before (as a baseline scan) and 1 day after contusion. The uptake of [^18F]21 in every spine segment was then normalized to the average spine uptake. […] After microPET/CT imaging, we conducted in situ histological staining of the spinal cord 60 min after injection of nonlabeled compound 21 through the tail vein.

myelin [6] = experiment: In situ autoradiography of mouse brain (Example 2); format: in vivo; conditions: mouse brain coronal sections
Protocol: Wild-type mice were euthanized at 30 min post iv injection of [^18F]21 (111 MBq, 3.0 mCi). The brains were rapidly removed, placed in OCT embedding medium, and frozen at −20° C. After reaching equilibrium at this temperature, the brains were coronally sectioned at 60 μm on a cryostat and mounted on superfrost slides. After drying by air at room temperature, the slides were put in a cassette and exposed for 20 min to film to obtain images.
To validate the PET results and confirm that the PET signals were indeed from specific binding to myelin, we conducted ex vivo autoradiography in the mouse brain following administration of [^18F]21 through tail vein injections. After 1 h, the mouse brain was dissected for coronal tissue sectioning. […] Thus, combination of in situ autoradiography and PET imaging confirmed that [^18F]21 binds specifically to myelin in vivo.

myelin [7] = experiment: Quantitative microPET/CT imaging in WT rats (Example 2); format: in vivo, rat
Protocol: as §1
Following radiosynthesis, the pharmacokinetic profile of [^18F]21 was fully characterized by quantitative microPET/CT imaging in WT rats (n=3). […] The brain radioactivity peaked at 3 min postinjection followed by rapid clearance before reaching a plateau at 40-60 min postinjection.

Structure (SMILES): CNc1ccc(/C=C/c2ccc(NCc3cn(CCF)nn3)cc2)cc1 [Compound 21, (E)-N-((1-(2-Fluoroethyl)-1H-1,2,3-triazol-4-yl)methyl)-4-(4-(methylamino)styryl)aniline]
- brain and spinal cord entry and myelin binding in situ (myelin [1]): readily entered the brain and spinal cord and localized in all the myelinated regions in proportion to the myelin content
- brain and spinal cord entry and myelin binding in situ (myelin [1]; listed as TAFDAS): readily penetrates the BBB and binds to myelin membranes in the brain and spinal cord
- detection of demyelinated lesion by fluorescent staining (myelin [2]): capable of detecting the demyelinated focal lesion by fluorescent staining

Structure (SMILES): CNc1ccc(/C=C/c2ccc(N)c(OCCF)c2)cc1 [Compound 32, (E)-4-(4-Amino-3-(2-fluoroethoxy)styryl)-N-methylaniline]
- fluorescent intensity ratio (FIR) white matter (gcc) vs gray matter (cortex) (myelin [3]): > 2

Structure (SMILES): CC(C)Nc1ccc(/C=C/c2ccc(N)c(OCCF)c2)cc1 [Compound 35, (E)-4-(4-Amino-3-(2-fluoroethoxy)styryl)-N-isopropylaniline]
- fluorescent intensity ratio (FIR) white matter (gcc) vs gray matter (cortex) (myelin [3]): > 2

- uptake in the brain (myelin [7]): high uptake in the brain
- time of peak brain radioactivity (myelin [7]; postinjection): 3 min
Structure (SMILES): CNc1ccc(/C=C/c2ccc(NCc3cn(CC[18F])nn3)cc2)cc1 [[^18F]21]
- uptake at 40-60 min, Shiverer vs control (myelin [4]): significantly decreased compared to the control mouse brain
- uptake at L1 normalized to average spine uptake (myelin [5]; 1 day post-T13 contusion): 1.08
- uptake at T12 normalized to average spine uptake (myelin [5]; 1 day post-T13 contusion): 0.99
- uptake at T13 normalized to average spine uptake (myelin [5]; 1 day post-T13 contusion (SCI group)): 0.81
- uptake at L1 normalized to average spine uptake (myelin [5]; before contusion (baseline)): 1.05
- uptake at T12 normalized to average spine uptake (myelin [5]; before contusion (baseline)): 0.99
- uptake at T13 normalized to average spine uptake (myelin [5]; before contusion (baseline)): 1.02
- labeling in ex vivo autoradiography (myelin [6]): distinctly labeled the corpus callosum
